Reference: ChEMBL document CHEMBL1932988, “Synthesis, antimicrobial, anticancer evaluation and QSAR studies of 6-methyl-4-[1-(2-substituted-phenylamino-acetyl)-1H-indol-3-yl]-2-oxo/thioxo-1,2,3,4-tetrahydropyrimidine-5-carboxylic acid ethyl esters” (Eur J Med Chem, 2012)
Converted amounts (≈) assume the structure as drawn.

Tested on: HCT-116
Assay: cells
Conditions: Homo sapiens, HCT-116, 72 h

IC50 [µg/mL] | Structure (SMILES)
450 (≈ 1000 µM) | CCOC(=O)C1=C(C)NC(=S)NC1c1cn(C(=O)CNc2ccccc2)c2ccccc12 (stereo unspecified)
29 (≈ 54.9 µM) | CCOC(=O)C1=C(C)NC(=S)NC1c1cn(C(=O)CNc2ccc([N+](=O)[O-])c(Cl)c2)c2ccccc12 (stereo unspecified)

Tested on: Aspergillus niger
Assay: Antifungal activity against Aspergillus niger MTCC 8189 after 7 days by tube dilution method hrs followed by subculturing
Type: functional
Conditions: not given

Structure (SMILES) | MFC [uM/ml]
CCOC(=O)C1=C(C)NC(=S)NC1c1cn(C(=O)CNc2ccccc2)c2ccccc12 (stereo unspecified) | >0.11
CCOC(=O)C1=C(C)NC(=S)NC1c1cn(C(=O)CNc2ccc([N+](=O)[O-])c(Cl)c2)c2ccccc12 (stereo unspecified) | >0.09

Tested on: Bacillus subtilis
Assay: Antibacterial activity against Bacillus subtilis MTCC 2063 after 24 hrs by tube dilution method
Type: functional
Conditions: not given

Structure (SMILES) | -logMIC
CCOC(=O)C1=C(C)NC(=S)NC1c1cn(C(=O)CNc2ccccc2)c2ccccc12 (stereo unspecified) | 1.25
CCOC(=O)C1=C(C)NC(=S)NC1c1cn(C(=O)CNc2ccc([N+](=O)[O-])c(Cl)c2)c2ccccc12 (stereo unspecified) | 1.32

Tested on: Staphylococcus aureus
Assay: Ratio of MIC to MBC for Staphylococcus aureus MTCC 2901
Type: functional
Conditions: not given

Structure (SMILES) | Ratio
CCOC(=O)C1=C(C)NC(=S)NC1c1cn(C(=O)CNc2ccccc2)c2ccccc12 (stereo unspecified) | 3
CCOC(=O)C1=C(C)NC(=S)NC1c1cn(C(=O)CNc2ccc([N+](=O)[O-])c(Cl)c2)c2ccccc12 (stereo unspecified) | 3

Tested on: Candida albicans
Assay: Antifungal activity against Candida albicans MTCC 227 after 48 hrs by tube dilution method
Type: functional
Conditions: not given

Structure (SMILES) | -logMIC
CCOC(=O)C1=C(C)NC(=S)NC1c1cn(C(=O)CNc2ccccc2)c2ccccc12 (stereo unspecified) | 1.55
CCOC(=O)C1=C(C)NC(=S)NC1c1cn(C(=O)CNc2ccc([N+](=O)[O-])c(Cl)c2)c2ccccc12 (stereo unspecified) | 1.63

Tested on: Escherichia coli
Assay: Antibacterial activity against Escherichia coli MTCC 1652 after 24 hrs by tube dilution method hrs followed by subculturing
Type: functional
Conditions: not given

Structure (SMILES) | MBC [uM/ml]
CCOC(=O)C1=C(C)NC(=S)NC1c1cn(C(=O)CNc2ccccc2)c2ccccc12 (stereo unspecified) | >0.11
CCOC(=O)C1=C(C)NC(=S)NC1c1cn(C(=O)CNc2ccc([N+](=O)[O-])c(Cl)c2)c2ccccc12 (stereo unspecified) | >0.09

Tested on: Bacillus subtilis
Assay: Antibacterial activity against Bacillus subtilis MTCC 2063 after 24 hrs by tube dilution method hrs followed by subculturing
Type: functional
Conditions: not given

Structure (SMILES) | MBC [uM/ml]
CCOC(=O)C1=C(C)NC(=S)NC1c1cn(C(=O)CNc2ccccc2)c2ccccc12 (stereo unspecified) | >0.11
CCOC(=O)C1=C(C)NC(=S)NC1c1cn(C(=O)CNc2ccc([N+](=O)[O-])c(Cl)c2)c2ccccc12 (stereo unspecified) | >0.09

Tested on: Candida albicans
Assay: Antifungal activity against Candida albicans MTCC 227 after 48 hrs by tube dilution method hrs followed by subculturing
Type: functional
Conditions: not given

Structure (SMILES) | MFC [uM/ml]
CCOC(=O)C1=C(C)NC(=S)NC1c1cn(C(=O)CNc2ccccc2)c2ccccc12 (stereo unspecified) | >0.11
CCOC(=O)C1=C(C)NC(=S)NC1c1cn(C(=O)CNc2ccc([N+](=O)[O-])c(Cl)c2)c2ccccc12 (stereo unspecified) | >0.09

Tested on: MCF7
Assay: cells
Conditions: Homo sapiens, MCF7, 72 h
Description: Cytotoxicity against human MCF7 cells after 72 hrs by MTT assay

IC50 [µg/mL] | Structure (SMILES)
52 (≈ 116 µM) | CCOC(=O)C1=C(C)NC(=S)NC1c1cn(C(=O)CNc2ccccc2)c2ccccc12 (stereo unspecified)
50 (≈ 94.7 µM) | CCOC(=O)C1=C(C)NC(=S)NC1c1cn(C(=O)CNc2ccc([N+](=O)[O-])c(Cl)c2)c2ccccc12 (stereo unspecified)

Tested on: Candida albicans
Assay: Ratio of MIC to MFC for Candida albicans MTCC 227
Type: functional
Conditions: not given

Structure (SMILES) | Ratio
CCOC(=O)C1=C(C)NC(=S)NC1c1cn(C(=O)CNc2ccccc2)c2ccccc12 (stereo unspecified) | 3
CCOC(=O)C1=C(C)NC(=S)NC1c1cn(C(=O)CNc2ccc([N+](=O)[O-])c(Cl)c2)c2ccccc12 (stereo unspecified) | 3

Tested on: Aspergillus niger
Assay: Ratio of MIC to MFC for Aspergillus niger MTCC 8189
Type: functional
Conditions: not given

Structure (SMILES) | Ratio
CCOC(=O)C1=C(C)NC(=S)NC1c1cn(C(=O)CNc2ccccc2)c2ccccc12 (stereo unspecified) | 3
CCOC(=O)C1=C(C)NC(=S)NC1c1cn(C(=O)CNc2ccc([N+](=O)[O-])c(Cl)c2)c2ccccc12 (stereo unspecified) | 3

Tested on: Aspergillus niger
Assay: Antifungal activity against Aspergillus niger MTCC 8189 after 7 days by tube dilution method
Type: functional
Conditions: not given

Structure (SMILES) | -logMIC
CCOC(=O)C1=C(C)NC(=S)NC1c1cn(C(=O)CNc2ccccc2)c2ccccc12 (stereo unspecified) | 1.55
CCOC(=O)C1=C(C)NC(=S)NC1c1cn(C(=O)CNc2ccc([N+](=O)[O-])c(Cl)c2)c2ccccc12 (stereo unspecified) | 1.63

Tested on: not listed separately
Assay: Partition coefficient, log P of the compound
Type: physicochemical
Conditions: octanol/water

logP | Structure (SMILES)
2.92 | CCOC(=O)C1=C(C)NC(=S)NC1c1cn(C(=O)CNc2ccccc2)c2ccccc12 (stereo unspecified)
3.4 | CCOC(=O)C1=C(C)NC(=S)NC1c1cn(C(=O)CNc2ccc([N+](=O)[O-])c(Cl)c2)c2ccccc12 (stereo unspecified)

Tested on: Escherichia coli
Assay: Ratio of MIC to MBC for Escherichia coli MTCC 1652
Type: functional
Conditions: not given

Structure (SMILES) | Ratio
CCOC(=O)C1=C(C)NC(=S)NC1c1cn(C(=O)CNc2ccccc2)c2ccccc12 (stereo unspecified) | 3
CCOC(=O)C1=C(C)NC(=S)NC1c1cn(C(=O)CNc2ccc([N+](=O)[O-])c(Cl)c2)c2ccccc12 (stereo unspecified) | 3

Tested on: Escherichia coli
Assay: Antibacterial activity against Escherichia coli MTCC 1652 after 24 hrs by tube dilution method
Type: functional
Conditions: not given

Structure (SMILES) | -logMIC
CCOC(=O)C1=C(C)NC(=S)NC1c1cn(C(=O)CNc2ccccc2)c2ccccc12 (stereo unspecified) | 1.55
CCOC(=O)C1=C(C)NC(=S)NC1c1cn(C(=O)CNc2ccc([N+](=O)[O-])c(Cl)c2)c2ccccc12 (stereo unspecified) | 1.63

Tested on: Staphylococcus aureus
Assay: Antibacterial activity against Staphylococcus aureus MTCC 2901 after 24 hrs by tube dilution method
Type: functional
Conditions: not given

Structure (SMILES) | -logMIC
CCOC(=O)C1=C(C)NC(=S)NC1c1cn(C(=O)CNc2ccccc2)c2ccccc12 (stereo unspecified) | 1.55
CCOC(=O)C1=C(C)NC(=S)NC1c1cn(C(=O)CNc2ccc([N+](=O)[O-])c(Cl)c2)c2ccccc12 (stereo unspecified) | 1.63

Tested on: Staphylococcus aureus
Assay: Antibacterial activity against Staphylococcus aureus MTCC 2901 after 24 hrs followed by subculturing
Type: functional
Conditions: not given

Structure (SMILES) | MBC [uM/ml]
CCOC(=O)C1=C(C)NC(=S)NC1c1cn(C(=O)CNc2ccccc2)c2ccccc12 (stereo unspecified) | >0.11
CCOC(=O)C1=C(C)NC(=S)NC1c1cn(C(=O)CNc2ccc([N+](=O)[O-])c(Cl)c2)c2ccccc12 (stereo unspecified) | >0.09

Tested on: Bacillus subtilis
Assay: Ratio of MIC to MBC for Bacillus subtilis MTCC 2063
Type: functional
Conditions: not given

Structure (SMILES) | Ratio
CCOC(=O)C1=C(C)NC(=S)NC1c1cn(C(=O)CNc2ccccc2)c2ccccc12 (stereo unspecified) | 3
CCOC(=O)C1=C(C)NC(=S)NC1c1cn(C(=O)CNc2ccc([N+](=O)[O-])c(Cl)c2)c2ccccc12 (stereo unspecified) | 3
